Experimental data taken from patent US12188936B2, “Biomarkers and therapeutics for endocrine therapy resistance” (LUNELLA BIOTECH, INC., priority 2018, dated 2025).

How the values were obtained:
MCF7-Y537S cells [1] = assay: SRB survival assay (cell viability), 5-day exposure; assay type: cell-based, human; conditions: 4-OHT 1 μM, 5 days, vs control
From the text: For FIG. 1, ** indicates p<0.005.

MCF7-Y537S cells [2] = assay: Mammosphere formation assay; assay type: cell-based, human; conditions: 72-hour pre-treatment with 1 μM, 5 days culture
Description: (§1) All of the transfected MCF7 cell lines were grown as mammospheres. […] In these figures, ** indicates p<0.005; and ns indicates not significant as evaluated by Student's t test.
(§2) MCF7 3D-mammosphere formation: A single cell suspension was prepared using enzymatic (lx Trypsin-EDTA, Sigma Aldrich, #T3924), and manual disaggregation (25 gauge needle). Cells were plated at a density of 500 cells/cm^2 in mammosphere medium (DMEM-F12+B27+20 ng/ml EGF+PenStrep) under non-adherent conditions, in culture dishes pre-coated with (2-hydroxyethylmethacrylate) (poly-HEMA, Sigma, #P3932), called “mammosphere plates.” Then, the cells were pre-treated for 72 hours with 1 μM of 4-OH-Tamoxifen. Vehicle alone (DMSO) control cells were processed in parallel. Afterwards, they were trypsined and seeded in mammosphere plates. Cells were grown for 5 days and maintained in a humidified incubator at 37° C. After 5 days of culture, 3D-spheres>50 μm were counted using an eye piece (“graticule”), and the percentage of cells plated which formed spheres was calculated and is referred to as percent mammosphere formation, and was normalized to one (1=100% MSF).

[3] = test system: transfected MCF7 cell lines (other than Y537S and ESR1 WT); assay: Mammosphere formation assay; assay type: cell-based, human; conditions: all transfected MCF7 cell lines except Y537S and ESR1 (WT), 72-hour pre-treatment with 1 μM, 5 days culture
Description: as §1, §2

MCF7-Y537S cells [4] = assay: Annexin-V analysis (apoptosis, FACS); assay type: cell-based, human; conditions: 1 μM for 72 hours
From the text: (§3) One mechanism by which the Y537S mutation may promote mammosphere formation in the presence of Tamoxifen is by conferring resistance to apoptosis. Staining with annexin V may be used to detect apoptotic cells by its ability to bind to phosphatidylserine, a marker of apoptosis when it is on the outer leaflet of the plasma membrane. Increases in annexin V staining indicates an increase in apoptosis.
(§4) The data in FIGS. 4A-4C were obtained as follows. The transduced MCF7 cell lines were all plated in 6-well plates. On the next day, the cells were treated with 4-OHT (1 μM) for 72 hours. MCF7-EV cells were processed in parallel, as a negative control. […] For the data in these drawings, * indicates p<0.05.
(§5) Annexin-V analysis: Cell death was quantified by flow cytometry using propidium iodide (PI) and Annexin V-FITC (20). Briefly, 1.5×10^5 all the transfected cells were plated in 6 multi-well plate in complete media supplemented with 10% HiFBS. The next day, cells were treated with 1 μM of 4-OH-Tamoxifen (4-OHT) for 48 h and 72 h. Vehicle alone (DMSO) for control cells were processed in parallel. After 48 hours, cells were harvested and washed in cold phosphate-buffered saline (PBS). […] Cells were then analyzed by flow cytometry using a PE Texas Red signal detector for PI staining and a FITC signal detector to detect Annexin V binding. 30,000 events were recorded by FACS using Fortessa BD. […]

[5] = test system: transfected MCF7 cell lines; assay: Annexin-V analysis (apoptosis, FACS); assay type: cell-based, human; conditions: 1 μM for 72 hours
From the text: as §3, §4, §5

[6] = test system: other MCF7 cell lines (ESR1 WT, Y537N, ErbB2, EV); conditions: 4-OHT 1 μM, 5 days
Description: To directly determine the validity of our model system, MCF7-Y537S cells were cultured for 5 days in the presence of Tamoxifen (1 μM) to assess its effect on cell viability. […] MCF7 cells were stably-transduced with either ESR1 (WT, Y537S, or Y537N) or ErbB2 (HER2), to genetically create a clinically relevant model of endocrine therapy resistance. Vector alone control MCF7 cells were generated in parallel (empty vector; EV; p-EV-105-puroR), as a negative control. […] The SRB assay was performed as a measure of cell viability and the experiment was carried out for 5 days.
Sulfo-rhodamine B (SRB) assay: SRB measures total biomass by staining cellular proteins.

CC/C(=C(\c1ccc(O)cc1)c1ccc(OCCN(C)C)cc1)c1ccccc1 [4-OHT, 4-OH-Tamoxifen]
cell viability (SRB survival) (MCF7-Y537S cells [1]): clearly show resistance | mammosphere formation (MCF7-Y537S cells [2]): remain largely unaffected | mammosphere formation efficiency (MFE) [3]: inhibited mammosphere formation efficiency | pro-apoptotic effect (annexin V levels) (MCF7-Y537S cells [4]): specifically resistant to the pro-apoptotic effects | annexin V levels [5]: increased in all transfected cell lines | cell viability (SRB survival) [6]: significant inhibitory effects
